Measurements taken from ChEMBL document CHEMBL5096167, “Recent advances in development of hetero-bivalent kinase inhibitors” (Eur J Med Chem, 2021).
*1 amine or outer side, *2 acyl side, *3 side chain or, on linkers, in order; H or OH if unused. Where a SMILES comes first, the peptide text is derived from it. [ ]: non-standard residue; d: D form. The star is where a group is joined. ξ: configuration not given here. X1 = Brc1c(Br)c(Br)c2[nH]c(NCCCN*)nc2c1Br; X2 = O=C(Cc1c(Br)c(Br)c(Br)c2[nH]nnc12)*; Suc = O=C(CCC(=O)[*:2])[*:1]; ξE = NC(CCC(=O)O)C(=O)O; ξS = NC(CO)C(=O)O

How the values were obtained:
Ephrin type-A receptor 3 = molecular target: T1, Ephrin type-A receptor 3 (Homo sapiens, UniProt P29320); experiment: Inhibition of EPHA3 (unknown origin) assessed as dissociation constant by ELISA-like binding assay
T1 sequence (P29320 whole entry): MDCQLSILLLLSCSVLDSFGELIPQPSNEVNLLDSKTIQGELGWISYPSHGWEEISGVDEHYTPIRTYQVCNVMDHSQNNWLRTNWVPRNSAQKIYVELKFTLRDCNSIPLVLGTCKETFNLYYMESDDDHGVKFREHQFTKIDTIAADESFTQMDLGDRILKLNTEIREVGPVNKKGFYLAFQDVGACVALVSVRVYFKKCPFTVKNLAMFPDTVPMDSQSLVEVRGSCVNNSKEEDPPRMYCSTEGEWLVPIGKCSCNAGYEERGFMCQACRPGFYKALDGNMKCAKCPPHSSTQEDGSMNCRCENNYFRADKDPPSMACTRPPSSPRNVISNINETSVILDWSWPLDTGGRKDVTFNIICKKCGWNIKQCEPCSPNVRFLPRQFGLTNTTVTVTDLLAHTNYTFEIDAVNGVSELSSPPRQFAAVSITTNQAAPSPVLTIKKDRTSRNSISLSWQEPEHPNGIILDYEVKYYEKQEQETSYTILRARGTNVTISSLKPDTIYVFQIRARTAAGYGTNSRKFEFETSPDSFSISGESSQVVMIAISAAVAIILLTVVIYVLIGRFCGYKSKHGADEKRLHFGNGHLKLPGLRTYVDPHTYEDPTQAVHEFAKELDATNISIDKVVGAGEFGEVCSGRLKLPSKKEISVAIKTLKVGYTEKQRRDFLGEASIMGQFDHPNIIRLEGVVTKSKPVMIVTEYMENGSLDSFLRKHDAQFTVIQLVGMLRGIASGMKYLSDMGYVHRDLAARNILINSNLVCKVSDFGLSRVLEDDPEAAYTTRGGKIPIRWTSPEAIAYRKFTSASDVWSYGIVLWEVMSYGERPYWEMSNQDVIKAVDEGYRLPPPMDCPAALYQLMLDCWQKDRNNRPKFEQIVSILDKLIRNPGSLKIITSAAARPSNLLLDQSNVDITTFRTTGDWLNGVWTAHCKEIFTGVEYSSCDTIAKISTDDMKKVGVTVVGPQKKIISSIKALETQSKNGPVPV

[1] = molecular target: T2, Serine/threonine-protein kinase haspin (Homo sapiens, UniProt Q8TF76)
T2 sequence (Q8TF76 whole entry): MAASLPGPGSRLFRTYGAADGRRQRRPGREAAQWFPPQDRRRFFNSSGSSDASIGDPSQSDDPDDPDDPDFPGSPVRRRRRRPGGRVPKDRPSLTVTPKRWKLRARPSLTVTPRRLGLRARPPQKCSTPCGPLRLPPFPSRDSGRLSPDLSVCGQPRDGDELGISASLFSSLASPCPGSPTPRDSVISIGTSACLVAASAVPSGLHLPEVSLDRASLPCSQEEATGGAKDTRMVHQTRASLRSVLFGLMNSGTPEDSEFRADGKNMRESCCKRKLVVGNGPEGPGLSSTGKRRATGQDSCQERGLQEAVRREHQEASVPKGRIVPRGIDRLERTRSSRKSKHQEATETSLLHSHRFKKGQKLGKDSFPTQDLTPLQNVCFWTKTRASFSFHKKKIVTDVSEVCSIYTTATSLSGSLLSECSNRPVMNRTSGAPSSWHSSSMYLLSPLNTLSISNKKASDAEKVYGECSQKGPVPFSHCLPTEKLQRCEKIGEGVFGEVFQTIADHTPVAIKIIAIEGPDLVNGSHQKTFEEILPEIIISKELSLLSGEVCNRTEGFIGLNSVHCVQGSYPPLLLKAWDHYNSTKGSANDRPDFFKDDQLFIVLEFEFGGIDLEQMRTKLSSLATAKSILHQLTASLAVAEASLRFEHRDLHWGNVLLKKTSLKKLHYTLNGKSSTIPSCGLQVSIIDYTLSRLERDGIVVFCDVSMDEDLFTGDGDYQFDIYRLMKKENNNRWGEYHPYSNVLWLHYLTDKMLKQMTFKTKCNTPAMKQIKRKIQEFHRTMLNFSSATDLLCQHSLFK

[2] = Binding affinity to full length human recombinant PKAc assessed as dissociation constant
[3] = molecular target: T2, Serine/threonine-protein kinase haspin; remark: listed apart in the source
Homo sapiens [4] = species: Homo sapiens
[5] = molecular target: Rho-associated protein kinase 2 (Homo sapiens, UniProt O75116); experiment: Inhibition of ROCK2 (unknown origin) assessed as dissociation constant
[6] = Inhibition of AKR3 (unknown origin) assessed as dissociation constant; set-up: species or system Homo sapiens
Homo sapiens [7] = species: Homo sapiens; experiment: Selectivity ratio of Kd for inhibition of Untagged full length human PKAc alpha expressed in Escherichia coli BL21 DE3 cells assessed as dissociation constant to Kd for AKR3
[8] = Binding affinity to PKAc (unknown origin) assessed as dissociation constant; set-up: species or system Homo sapiens
Homo sapiens [9] = species: Homo sapiens; experiment: Selectivity ratio of Kd for inhibition of Untagged full length human PKAc alpha expressed in Escherichia coli BL21 DE3 cells assessed as dissociation constant to Kd for inhibition of ROCK2 (unknown origin)
[10] = molecular target: T3, cAMP-dependent protein kinase (PKA) (Homo sapiens, UniProt P22694+P17612+P22612); experiment: Binding affinity to PKA (unknown origin) assessed as dissociation constant; type: protein assay
[11] = molecular target: T3, cAMP-dependent protein kinase (PKA)
[12] = molecular target: Proto-oncogene tyrosine-protein kinase Src (Homo sapiens, UniProt P12931); experiment: Inhibition of c-Src (unknown origin)
[13] = Inhibition of CK2alpha2beta2 (unknown origin); set-up: species or system Homo sapiens
Casein kinase 2 = Casein kinase 2 (Homo sapiens, UniProt P67870+P68400+P19784+Q8NEV1); experiment: Inhibition of human CK2; type: protein assay
[14] = molecular target: T2, Serine/threonine-protein kinase haspin; remark: listed apart in the source
[15] = Binding affinity to human PKAc beta-S54L mutant assessed as dissociation constant
[16] = molecular target: cAMP-dependent protein kinase catalytic subunit beta (Homo sapiens, UniProt P22694); experiment: Binding affinity to human wild-type PKAc beta assessed as dissociation constant
[17] = molecular target: cAMP-dependent protein kinase catalytic subunit alpha (Homo sapiens, UniProt P17612); experiment: Displacement of mAb(D38C6)-BTN from human recombinant PKAc alpha incubated for 15 mins by microplate reader assay

Chain of Proto-oncogene tyrosine-protein kinase Src (P12931 2-536 limits assumed): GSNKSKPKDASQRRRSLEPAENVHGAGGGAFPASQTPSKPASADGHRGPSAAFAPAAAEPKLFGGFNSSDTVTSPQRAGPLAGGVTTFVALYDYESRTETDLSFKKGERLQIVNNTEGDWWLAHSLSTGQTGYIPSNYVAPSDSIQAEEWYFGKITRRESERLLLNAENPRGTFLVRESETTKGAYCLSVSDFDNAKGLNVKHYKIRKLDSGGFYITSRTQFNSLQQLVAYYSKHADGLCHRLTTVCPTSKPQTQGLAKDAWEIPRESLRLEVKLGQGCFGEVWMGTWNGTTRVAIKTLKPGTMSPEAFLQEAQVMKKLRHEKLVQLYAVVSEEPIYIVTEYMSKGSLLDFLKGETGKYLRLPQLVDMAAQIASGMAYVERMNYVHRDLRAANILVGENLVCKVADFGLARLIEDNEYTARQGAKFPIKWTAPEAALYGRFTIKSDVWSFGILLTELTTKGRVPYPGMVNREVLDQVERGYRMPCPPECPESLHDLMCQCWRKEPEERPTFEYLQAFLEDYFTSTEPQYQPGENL
Chain of Rho-associated protein kinase 2 (O75116 whole entry): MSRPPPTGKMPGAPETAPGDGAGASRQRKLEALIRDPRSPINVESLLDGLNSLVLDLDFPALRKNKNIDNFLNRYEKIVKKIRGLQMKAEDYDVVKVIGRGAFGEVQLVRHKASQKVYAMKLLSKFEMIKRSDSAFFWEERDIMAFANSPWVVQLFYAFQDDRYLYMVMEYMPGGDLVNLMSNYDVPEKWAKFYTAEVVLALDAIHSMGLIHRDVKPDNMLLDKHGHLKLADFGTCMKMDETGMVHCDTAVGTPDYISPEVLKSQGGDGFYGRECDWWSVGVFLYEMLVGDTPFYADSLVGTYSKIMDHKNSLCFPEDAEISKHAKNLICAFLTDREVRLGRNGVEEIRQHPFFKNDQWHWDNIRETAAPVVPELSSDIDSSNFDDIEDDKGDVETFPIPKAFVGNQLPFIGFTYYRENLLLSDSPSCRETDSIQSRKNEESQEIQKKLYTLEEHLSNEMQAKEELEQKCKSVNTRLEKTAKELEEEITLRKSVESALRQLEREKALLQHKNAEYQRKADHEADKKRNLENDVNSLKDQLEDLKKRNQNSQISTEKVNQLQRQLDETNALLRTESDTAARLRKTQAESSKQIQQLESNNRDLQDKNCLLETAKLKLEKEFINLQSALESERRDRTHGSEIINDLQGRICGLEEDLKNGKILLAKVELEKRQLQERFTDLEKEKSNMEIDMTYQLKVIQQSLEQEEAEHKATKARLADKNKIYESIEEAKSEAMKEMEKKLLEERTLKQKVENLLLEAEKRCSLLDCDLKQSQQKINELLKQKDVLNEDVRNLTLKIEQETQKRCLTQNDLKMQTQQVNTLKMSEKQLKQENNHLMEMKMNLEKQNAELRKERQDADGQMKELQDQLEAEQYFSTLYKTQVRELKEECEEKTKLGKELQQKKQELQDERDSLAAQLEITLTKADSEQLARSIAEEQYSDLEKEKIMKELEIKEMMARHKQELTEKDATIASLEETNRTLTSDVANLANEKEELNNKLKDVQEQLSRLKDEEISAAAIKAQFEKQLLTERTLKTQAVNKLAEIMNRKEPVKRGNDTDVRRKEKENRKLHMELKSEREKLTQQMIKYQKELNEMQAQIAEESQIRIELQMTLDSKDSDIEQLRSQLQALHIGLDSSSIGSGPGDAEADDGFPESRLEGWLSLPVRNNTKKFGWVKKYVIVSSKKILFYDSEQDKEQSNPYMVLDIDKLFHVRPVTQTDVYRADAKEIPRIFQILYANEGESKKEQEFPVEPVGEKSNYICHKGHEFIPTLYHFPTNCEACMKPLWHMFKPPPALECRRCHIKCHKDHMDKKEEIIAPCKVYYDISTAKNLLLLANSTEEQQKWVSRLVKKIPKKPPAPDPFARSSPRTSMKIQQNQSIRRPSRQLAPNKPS

CC(C)(C)n1nc(-c2ccc(Cl)cc2)c2c(N)ncnc21
Kd (Ephrin type-A receptor 3): 200000 nM

C[C@H](N)C(=O)N[C@@H](CCCNC(=N)N)C(=O)N[C@@H](CCCCNC(=O)C[C@@H](NC(=O)CCCCCNC(=O)[C@H]1O[C@@H](n2cc(I)c3c(N)ncnc32)[C@H](O)[C@@H]1O)C(=O)O)C(=O)N[C@@H](CCCNC(=N)N)C(=O)N[C@@H](CCC(=O)O)C(=O)N[C@H](C(=O)N[C@@H](C)C(=O)N[C@H](CCCCN)C(N)=O)[C@H](C)O
Kd [1]: 0.019 nM | Kd [2]: 94 nM | Kd [3]: 0.019 nM | Selectivity Index (Homo sapiens [4]): 4900

N=C(N)NCCC[C@@H](NC(=O)CCCCCCCC(=O)N1CCN(C2N=CN=C3NC=CC32)CC1)C(=O)N[C@H](CCCNC(=N)N)C(=O)N[C@H](CCCNC(=N)N)C(=O)N[C@H](CCCNC(=N)N)C(=O)N[C@H](CCCNC(=N)N)C(=O)N[C@H](CCCNC(=N)N)C(=O)N[C@H](CCCCN)C(N)=O (some centres undefined)
Kd [5]: 30 nM | Kd [6]: 310 nM | Selectivity ratio (Homo sapiens [7]): 10 | Kd [8]: 0.003 nM | Ratio (Homo sapiens [9]): 10 | Kd [10]: 0.1 nM

CC(C)[C@@H]1NC(=O)[C@H](CCCNC(=N)N)NC(=O)[C@H](Cc2ccccc2)NC(=O)[C@H]([C@@H](C)O)NC(=O)[C@@H](N)CSSC[C@@H](C(=O)NCC(N)=O)NC(=O)NC(=O)[C@H](Cc2ccccc2)NC1=O
IC50 [11]: 57000 nM

CC[C@H](C)[C@H](NC(=O)[C@H](CCC(=O)O)NC(=O)[C@H](CCC(=O)O)NC(=O)[C@H](Cc1ccc(P(=O)(O)O)cc1)NC(=O)[C@H](CCC(=O)O)NC(=O)COCC(=O)NCCOCCOCCOCCOCCOCCOCCOCCOCCn1cc(CCC(=O)N2CCN(c3cc(Nc4cc(C5CC5)[nH]n4)nc(C)n3)CC2)nn1)C(N)=O
IC50 [12]: 160 nM

O=C(O)CC[C@H](NC(=O)[C@H](CCC(=O)O)NC(=O)[C@H](CCC(=O)O)NC(=O)[C@H](CCC(=O)O)NC(=O)CCC(=O)NCCCNc1nc2c(Br)c(Br)c(Br)c(Br)c2[nH]1)C(=O)O ({X1-Suc}-EEEE-OH)
IC50 [13]: 25 nM

NC(=O)C(CCC(=O)O)NC(=O)C(CCC(=O)O)NC(=O)C(CCC(=O)O)NC(=O)C(CO)NC(=O)C(CCC(=O)O)NC(=O)[C@@H](N)CCCCNC(=O)Cc1c(Br)c(Br)c(Br)c2[nH]nnc12 (some centres undefined) (H-K(X2)[ξE][ξS][ξE][ξE][ξE]-NH2)
IC50 (Casein kinase 2): 670 nM

CO[C@@H]1[C@H](N(C)C(=O)CCC(=O)O)C[C@H]2O[C@]1(C)n1c3ccccc3c3c4c(c5c6ccccc6n2c5c31)C(=O)NC4
IC50 [11]: 159 nM

C[C@H](N)C(=O)N[C@@H](CCCNC(=N)N)C(=O)N[C@@H](CCCCNC(=O)C[C@@H](NC(=O)CCCCCNC(=O)[C@H]1O[C@@H](n2cnc3c(N)ncnc32)[C@H](O)[C@@H]1O)C(=O)O)C(=O)N[C@@H](CCCCN)C(=O)N[C@@H](CCC(N)=O)C(=O)N[C@H](C(=O)N[C@@H](C)C(N)=O)[C@@H](C)O
Kd [2]: 7700 nM | Selectivity Index (Homo sapiens [4]): 50 | Kd [14]: 150 nM

Nc1ncnc2c1ncn2[C@@H]1O[C@H](C(=O)O)[C@@H](O)[C@H]1O [5'-CARBOXY ADENOSINE]
Kd [3]: > 15000 nM

C[C@H](N)C(=O)N[C@@H](CCCNC(=N)N)C(=O)N[C@@H](CCCCNC(=O)C[C@@H](NC(=O)CCCCCNC(=O)[C@H]1O[C@@H](n2cnc3c(N)ncnc32)[C@H](O)[C@@H]1O)C(N)=O)C(=O)N[C@@H](CCCCN)C(=O)N[C@@H](CCC(N)=O)C(=O)N[C@H](C(=O)N[C@@H](C)C(=O)N[C@@H](CCCNC(=N)N)C(=O)N[C@@H](CCCNC(=N)N)C(=O)N[C@@H](CCCNC(=N)N)C(=O)N[C@@H](CCCNC(=N)N)C(=O)N[C@@H](CCCNC(=N)N)C(=O)N[C@@H](CCCNC(=N)N)C(N)=O)[C@H](C)O
Kd [2]: 38 nM | Selectivity Index (Homo sapiens [4]): 90 | Kd [14]: 0.42 nM

C#CCCC(=O)N1CCN(c2cc(Nc3cc(C4CC4)[nH]n3)nc(C)n2)CC1
IC50 [12]: 2900 nM

O=C(O)Cc1c(Br)c(Br)c(Br)c2[nH]nnc12
IC50 (Casein kinase 2): 8000 nM

NCCCNc1nc2c(Br)c(Br)c(Br)c(Br)c2[nH]1
IC50 [13]: 130 nM

N=C(N)NCCCC(NC(=O)CCCCCNC(=O)C(Cc1c[nH]c2ccccc12)NC(=O)CCCCCNC(=O)c1ccc(-c2ccnc(N)n2)[se]1)C(=O)NC(CCCNC(=N)N)C(=O)NC(CCCNC(=N)N)C(=O)NC(CCCNC(=N)N)C(=O)NC(CCCNC(=N)N)C(=O)NC(CCCNC(=N)N)C(=O)NC(CCCCN)C(N)=O (centres undefined)
Kd [15]: 0.019 nM | Kd [16]: 0.013 nM

COC(=O)CC[C@H](NC(=O)CCC(=O)NCCCNc1nc2c(Br)c(Br)c(Br)c(Br)c2[nH]1)C(=O)N[C@@H](CCC(=O)OC)C(=O)N[C@@H](CCC(=O)OC)C(=O)N[C@@H](CCC(=O)OC)C(=O)OC ({X1-Suc}-E(OMe)E(OMe)E(OMe)E(OMe)-OMe)
IC50 [13]: 10000 nM

C[C@@H](NC(=O)CCCCCNC(=O)c1ccc(-c2ccnc(N)n2)[se]1)C(=O)N[C@H](CCCNC(=N)N)C(=O)N[C@H](CCCNC(=N)N)C(=O)N[C@H](CCCNC(=N)N)C(=O)N[C@H](CCCNC(=N)N)C(=O)N[C@H](CCCNC(=N)N)C(=O)N[C@H](CCCNC(=N)N)C(=O)N[C@H](CCCCN(C)c1ccc2c(-c3ccc(C(=O)[O-])cc3C(=O)O)c3ccc(=[N+](C)C)cc-3oc2c1)C(N)=O
Kd [17]: 0.042 nM

C[C@H](N)C(=O)N[C@@H](CCCNC(=N)N)C(=O)N[C@@H](CCCCNC(=O)C[C@@H](NC(=O)CCCCCNC(=O)[C@H]1O[C@@H](n2cnc3c(N)ncnc32)[C@H](O)[C@@H]1O)C(N)=O)C(=O)N[C@@H](CCCCN)C(=O)N[C@@H](CCC(=O)O)C(=O)N[C@H](C(=O)N[C@@H](C)C(N)=O)[C@H](C)O
Kd [2]: 1600 nM | Selectivity Index (Homo sapiens [4]): 9 | Kd [14]: 170 nM

CO[C@@H]1[C@H](N(C)C(=O)CCC(=O)NCCCOCCOCCOCCCNC(=O)COCC(=O)N[C@H]2CSSC[C@@H](C(=O)NCC(N)=O)NC(=O)NC(=O)[C@H](Cc3ccccc3)NC(=O)[C@H](C(C)C)NC(=O)[C@H](CCCNC(=N)N)NC(=O)[C@H](Cc3ccccc3)NC(=O)[C@H]([C@@H](C)O)NC2=O)C[C@H]2O[C@]1(C)n1c3ccccc3c3c4c(c5c6ccccc6n2c5c31)C(=O)NC4
IC50 [11]: 2.6 nM
